Data published in patent US4507313A, “Oxadiazolyl-imidazo-[1,4]benzodiazepines and their use in treatment of diseases of the central nervous system” (A/S Ferrosan, priority 1982, dated 1985).

How the values were obtained:
benzodiazepine receptors [1] = experiment: Displacement of 3H-flunitrazepam binding in vitro (rat forebrain membrane suspension); details: 3H-flunitrazepam 1.0 nM, 0° C., 25 mM KH2PO4 pH 7.1, rat forebrain, 40-60 min
benzodiazepine receptors [2] = experiment: Inhibition of 3H-flunitrazepam binding to benzodiazepine receptors in living brain, in vivo; details: mice, usually subcutaneous; 3H-flunitrazepam i.v. 15 min later, killed after further 20 min; 50% reduction of specific binding
Description: The ED50 value represents the dose (mg/kg) of a test substance which causes the specific binding of flunitrazepam to benzodiazepine receptors in a living brain to be reduced to 50% of the control value. Such an in vivo test is carried out as follows:
Groups of mice are injected with the test substance at different doses and usually subcutaneously. 15 minutes later, ^3 H-flunitrazepam is given intravenously to the mice and after a further 20 minutes, the mice are killed, their […] by scintillation counting. The ED50 value is determined from dose-response curves.

SMILES | Inhibition of 3H-flunitrazepam-binding in vitro IC50 (benzodiazepine receptors [1]) [ng/mL] | Inhibition of 3H-flunitrazepam-binding in vivo ED50 (benzodiazepine receptors [2]) [mg/kg]
CCOC(=O)c1ncn2c1CN(C)C(=O)c1cc(Cl)ccc1-2 [ethyl-8-chloro-5,6-dihydro-5-methyl-6-oxo-4H--imidazo[1,5-a][1,4]benzodiazepine-3-carboxylate, reference compound] | 7.9 | > 30
CCc1noc(-c2ncn3c2CN(C)C(=O)c2ccccc2-3)n1 [3-[5-(3-ethyl-1,2,4-oxadiazole)-yl]-5,6-dihydro-5-methyl-6-oxo-4H-imidazo[1,5-a][1,4]benzodiazepine] | 12 | 2.2
CCc1noc(-c2ncn3c2CN(C)C(=O)c2cc(Cl)ccc2-3)n1 [8-chloro-5,6-dihydro-3-[5-(3-ethyl-1,2,4-oxadiazole)-yl]-5-methyl-6-oxo-4H-imidazo[1,5-a][1,4]benzodiazepine] | > 10 | 5.9
CCOC(=O)c1ncn2c1CN(C)C(=O)c1ccccc1-2 [ethyl-5,6-dihydro-5-methyl-6-oxo-4H--imidazo[1,5-a][1,4]benzodiazepine-3-carboxylate, reference compound] | – | > 30
CCc1noc(-c2ncn3c2CN(C)C(=O)c2cc(F)ccc2-3)n1 [5,6-dihydro-3-[5-(3-ethyl-1,2,4-oxadiazole)-yl]-8-fluoro-5-methyl-6-oxo-4H-imidazo[1,5-a][1,4]benzodiazepine] | 3.5 | 4.5
